Measured values as given in PubChem BioAssay (NCI).
“And” between values parts separate entries of the source, which are not always exact repeats. Equal entries are not always repeated.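 These data come from cells grown in 96-well plates and exposed to compound for 48 hours at five concentrations. Here, GI50 denotes the concentration required for 50% inhibition of growth. TGI is the concentration that stops growth completely.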

Assays:
Assay in all cases: NCI tumour cell line growth inhibition, 48 h
COLO 205 colon = test system: COLO 205 colon
SK-MEL-28 melanoma = test system: SK-MEL-28 melanoma
U251 CNS = test system: U251 CNS
SN12K1 renal = test system: SN12K1 renal
HCC-2998 colon = test system: HCC-2998 colon
DMS 114 small cell lung = test system: DMS 114 small cell lung
OVCAR-5 ovarian = test system: OVCAR-5 ovarian
P388 leukemia = test system: P388 leukemia
MOLT-4 leukemia = test system: MOLT-4 leukemia
OVCAR-8 ovarian = test system: OVCAR-8 ovarian
SF-268 CNS = test system: SF-268 CNS
SF-539 CNS = test system: SF-539 CNS
OVCAR-3 ovarian = test system: OVCAR-3 ovarian
NCI-H522 lung = test system: NCI-H522 lung
UACC-62 melanoma = test system: UACC-62 melanoma
M19-MEL melanoma = test system: M19-MEL melanoma
K-562 leukemia = test system: K-562 leukemia
A549 NSCLC = test system: A549 NSCLC
P388/ADR leukemia = test system: P388/ADR leukemia
MALME-3M melanoma = test system: MALME-3M melanoma
XF 498 CNS = test system: XF 498 CNS
OVCAR-4 ovarian = test system: OVCAR-4 ovarian
RPMI-8226 leukemia = test system: RPMI-8226 leukemia
HOP-92 NSCLC = test system: HOP-92 NSCLC
RXF 393 renal = test system: RXF 393 renal
SN12C renal = test system: SN12C renal
NCI/ADR-RES ovarian = test system: NCI/ADR-RES ovarian
HOP-62 NSCLC = test system: HOP-62 NSCLC
A498 renal = test system: A498 renal
HT29 colon = test system: HT29 colon
IGROV1 ovarian = test system: IGROV1 ovarian
HOP-18 NSCLC = test system: HOP-18 NSCLC
NCI-H23 lung = test system: NCI-H23 lung
LOX IMVI melanoma = test system: LOX IMVI melanoma
HCT-15 colon = test system: HCT-15 colon
SK-MEL-2 melanoma = test system: SK-MEL-2 melanoma
SK-OV-3 ovarian = test system: SK-OV-3 ovarian
DMS 273 small cell lung = test system: DMS 273 small cell lung
UO-31 renal = test system: UO-31 renal
SK-MEL-5 melanoma = test system: SK-MEL-5 melanoma
SNB-75 CNS = test system: SNB-75 CNS
HCT-116 colon = test system: HCT-116 colon
HL-60(TB) leukemia = test system: HL-60(TB) leukemia
NCI-H460 lung = test system: NCI-H460 lung
KM20L2 colon = test system: KM20L2 colon
DLD-1 colon = test system: DLD-1 colon
NCI-H226 lung = test system: NCI-H226 lung
SF-295 CNS = test system: SF-295 CNS
CCRF-CEM leukemia = test system: CCRF-CEM leukemia
UACC-257 melanoma = test system: UACC-257 melanoma
SNB-78 CNS = test system: SNB-78 CNS
SNB-19 CNS = test system: SNB-19 CNS
KM12 colon = test system: KM12 colon
MCF7 breast = test system: MCF7 breast
EKVX NSCLC = test system: EKVX NSCLC
SW-620 colon = test system: SW-620 colon
MDA-MB-231 breast = test system: MDA-MB-231 breast
CAKI-1 renal = test system: CAKI-1 renal
MDA-N = test system: MDA-N
TK-10 renal = test system: TK-10 renal
T-47D breast = test system: T-47D breast
DU-145 prostate = test system: DU-145 prostate
MDA-MB-435 = test system: MDA-MB-435
BT-549 breast = test system: BT-549 breast
SR leukemia = test system: SR leukemia
PC-3 prostate = test system: PC-3 prostate
ACHN renal = test system: ACHN renal
786-0 renal = test system: 786-0 renal
M14 melanoma = test system: M14 melanoma

In the case of `Cc1c2c(cc3c1[nH]c1ccccc13)C(c1ccc(Cl)cc1)=NCC2`, the TGI (COLO 205 colon) is reported as 13.2 µM, the TGI (SK-MEL-28 melanoma) is reported as 61.2 µM and the TGI (U251 CNS) is reported as 5.7 µM. It also gave a TGI (SN12K1 renal) of 0.829 µM, a TGI (HCC-2998 colon) of 10.7 µM and a TGI (DMS 114 small cell lung) of 3.87 µM. It also gave a TGI (OVCAR-5 ovarian) of 33.7 µM, a TGI (P388 leukemia) of 1.47 µM and a TGI (MOLT-4 leukemia) of 1.79 µM. It also gave a TGI (OVCAR-8 ovarian) of 7.14 µM, a TGI (SF-268 CNS) of 22 µM and a TGI (SF-539 CNS) of 2.53 µM. The TGI (OVCAR-3 ovarian) was 1.78 µM, the TGI (NCI-H522 lung) was 4.45 µM and the TGI (UACC-62 melanoma) was 17.6 µM. For the same compound, the TGI (M19-MEL melanoma) was 88.8 µM, the TGI (K-562 leukemia) was 8.87 µM and the TGI (A549 NSCLC) was 11.8 µM. The TGI (P388/ADR leukemia) was 18.4 µM, the TGI (MALME-3M melanoma) was 55.9 µM and the TGI (XF 498 CNS) was 0.0949 µM. The TGI (OVCAR-4 ovarian) was 6.49 µM, the TGI (RPMI-8226 leukemia) was 8.23 µM and the TGI (HOP-92 NSCLC) was 30.8 µM. It also gave a TGI (RXF 393 renal) of 2.45 µM, a TGI (SN12C renal) of 3.46 µM and a TGI (NCI/ADR-RES ovarian) of 1.39 µM. For the same compound, the TGI (HOP-62 NSCLC) was 11.2 µM, the TGI (A498 renal) was 10.2 µM and the TGI (HT29 colon) was 0.687 µM. For the same compound, the TGI (IGROV1 ovarian) was 24.1 µM, the TGI (HOP-18 NSCLC) was 10.6 µM and the TGI (NCI-H23 lung) was 2.98 µM. For the same compound, the TGI (LOX IMVI melanoma) was 11.4 µM, the TGI (HCT-15 colon) was 9.89 µM and the TGI (SK-MEL-2 melanoma) was 7.9 µM. The TGI (SK-OV-3 ovarian) was 9.23 µM, the TGI (DMS 273 small cell lung) was 2.62 µM and the TGI (UO-31 renal) was 8.99 µM. It also gave a TGI (SK-MEL-5 melanoma) of 3.83 µM, a TGI (SNB-75 CNS) of 1.42 µM and a TGI (HCT-116 colon) of 12.7 µM. The TGI (HL-60(TB) leukemia) was 0.717 µM, the TGI (NCI-H460 lung) was 1.33 µM and the TGI (KM20L2 colon) was 0.809 µM. The TGI (DLD-1 colon) was 19 µM, the TGI (NCI-H226 lung) was 6.82 µM and the TGI (SF-295 CNS) was 0.718 µM. It also gave a TGI (CCRF-CEM leukemia) of 8.54 µM, a TGI (UACC-257 melanoma) of 43.9 µM and a TGI (SNB-78 CNS) of 27.1 µM. It also gave a TGI (SNB-19 CNS) of 1.72 µM, a TGI (KM12 colon) of 18.2 µM and a TGI (MCF7 breast) of 7.32 µM. The TGI (EKVX NSCLC) was 35.1 µM and the TGI (SW-620 colon) was 19 µM.
Work on `CCCCCCCCCCS(=O)CC(CO)NC(=O)/C=C/c1c(C)[nH]c(=O)[nH]c1=O` (stereo unspecified) yielded a GI50 (COLO 205 colon) of 2.96 µM, a GI50 (SK-MEL-28 melanoma) of 43.9 µM and a GI50 (U251 CNS) of 17.4 µM. The TGI (SN12K1 renal) was 3.9 µM, the TGI (MDA-MB-231 breast) was 15.9 µM and the GI50 (HCC-2998 colon) was 3.26 µM. For the same compound, the TGI (HCC-2998 colon) was 1.9 µM and 17.5 µM, the TGI (DMS 114 small cell lung) was 1.42 µM and the GI50 (OVCAR-5 ovarian) was 2.86 µM. The TGI (OVCAR-5 ovarian) was 11.6 µM and 10.2 µM, the TGI (P388 leukemia) was 1.62 µM and the GI50 (MOLT-4 leukemia) was 8.74 µM. For the same compound, the TGI (MOLT-4 leukemia) was 4.68 µM and 45.5 µM, the TGI (SF-268 CNS) was 2.01 µM and the GI50 (SF-539 CNS) was 14.9 µM. For the same compound, the GI50 (NCI-H522 lung) was 10.6 µM, the GI50 (UACC-62 melanoma) was 9.8 µM and the TGI (UACC-62 melanoma) was 4.08 µM and 24.5 µM. The TGI (CAKI-1 renal) was 4.2 µM and 31.1 µM, the TGI (MDA-N) was 57.5 µM and the TGI (M19-MEL melanoma) was 4.3 µM. It also gave a GI50 (K-562 leukemia) of 26.4 µM, a TGI (TK-10 renal) of 4.02 µM and a GI50 (A549 NSCLC) of 14.2 µM. For the same compound, the TGI (A549 NSCLC) was 35.3 µM and 31.8 µM, the TGI (P388/ADR leukemia) was 24.5 µM and the GI50 (MALME-3M melanoma) was 23.9 µM. It also gave a TGI (XF 498 CNS) of 0.229 µM, a TGI (OVCAR-4 ovarian) of 1.88 µM and a GI50 (RPMI-8226 leukemia) of 10.6 µM. For the same compound, the GI50 (HOP-92 NSCLC) was 10.5 µM, the GI50 (RXF 393 renal) was 10 µM and the GI50 (SN12C renal) was 10.3 µM. For the same compound, the GI50 (NCI/ADR-RES ovarian) was 17.2 µM, the TGI (NCI/ADR-RES ovarian) was 37.9 µM and 34.2 µM and the GI50 (HOP-62 NSCLC) was 4.8 µM. For the same compound, the TGI (HOP-62 NSCLC) was 6.49 µM and 18.4 µM, the GI50 (A498 renal) was 23.4 µM and the TGI (A498 renal) was 7.98 µM and 62.1 µM. The GI50 (HT29 colon) was 6.27 µM, the TGI (HT29 colon) was 22.7 µM and 19.9 µM and the TGI (T-47D breast) was 39.6 µM. The GI50 (IGROV1 ovarian) was 2.77 µM, the TGI (IGROV1 ovarian) was 13.5 µM and 8.81 µM and the TGI (HOP-18 NSCLC) was 16.2 µM. It also gave a TGI (DU-145 prostate) of over 100 µM, a GI50 (NCI-H23 lung) of 29.5 µM and a GI50 (LOX IMVI melanoma) of 13.5 µM. For the same compound, the TGI (LOX IMVI melanoma) was 10.2 µM and 27.1 µM, the GI50 (HCT-15 colon) was 4.4 µM and the TGI (HCT-15 colon) was 14.8 µM and 21.5 µM. For the same compound, the GI50 (SK-MEL-2 melanoma) was 25.8 µM, the GI50 (SK-OV-3 ovarian) was 11 µM and the TGI (SK-OV-3 ovarian) was 12.7 µM and 32.1 µM. For the same compound, the TGI (DMS 273 small cell lung) was 4.04 µM, the GI50 (UO-31 renal) was 17.2 µM and the TGI (UO-31 renal) was 8.68 µM and 33.8 µM. For the same compound, the TGI (MDA-MB-435) was 49.1 µM, the GI50 (SK-MEL-5 melanoma) was 18.2 µM and the TGI (SK-MEL-5 melanoma) was 4.52 µM and 40.4 µM. The TGI (SNB-75 CNS) was 1.76 µM, the TGI (HCT-116 colon) was 5.61 µM and 31.9 µM and the TGI (BT-549 breast) was 25.1 µM. For the same compound, the TGI (HL-60(TB) leukemia) was 4.16 µM, the TGI (NCI-H460 lung) was 1.97 µM and 15.3 µM and the TGI (KM20L2 colon) was 6 µM. For the same compound, the TGI (DLD-1 colon) was 5.28 µM, the TGI (NCI-H226 lung) was 4.21 µM and the GI50 (SF-295 CNS) was 1.15 µM and 7.04 µM. For the same compound, the TGI (SF-295 CNS) was 8.88 µM and 22.8 µM, the TGI (SR leukemia) was over 100 µM and the GI50 (CCRF-CEM leukemia) was 4.08 µM. For the same compound, the TGI (CCRF-CEM leukemia) was 2.41 µM and 13.2 µM, the TGI (PC-3 prostate) was 7.79 µM and the GI50 (UACC-257 melanoma) was 20.4 µM. For the same compound, the TGI (UACC-257 melanoma) was 9.58 µM and 43.7 µM, the TGI (SNB-78 CNS) was 5.65 µM and the TGI (SNB-19 CNS) was 2.64 µM and 25.7 µM. For the same compound, the TGI (KM12 colon) was 3.27 µM, the TGI (ACHN renal) was 28.5 µM and the GI50 (MCF7 breast) was 23.4 µM. It also gave a TGI (786-0 renal) of 27 µM, a TGI (M14 melanoma) of 24.4 µM and a GI50 (EKVX NSCLC) of 28.3 µM. It also gave a GI50 (SW-620 colon) of 15.7 µM.
